Experiments:
[1] = biological target: T1, Mu-type opioid receptor (Rattus norvegicus, UniProt P33535); assay: mu-2 receptor binding affinity in rat brain by 3H [d-Ala2, (N-Me)Phe4, Gly5-ol] enkephalin displacement.; format: tissue-based
[2] = tested on: Mus musculus; assay: Area under the antinociceptive effect time curve after 2 mg/kg administration in mice.; format: functional
[3] = tested on: Mus musculus; assay: Area under the antinociceptive effect time curve was determined after administration of 8 mg/kg in mice; format: functional
[4] = tested on: Mus musculus; assay: Area under the antinociceptive effect time curve after 4 mg/kg administration in mice.; format: functional
[5] = biological target: T1, Mu-type opioid receptor; assay: mu-1 receptor binding affinity in rat brain by 3H [d-Ala2, d-Leu5] enkephalin displacement.; format: tissue-based

T1 sequence (P33535 whole entry): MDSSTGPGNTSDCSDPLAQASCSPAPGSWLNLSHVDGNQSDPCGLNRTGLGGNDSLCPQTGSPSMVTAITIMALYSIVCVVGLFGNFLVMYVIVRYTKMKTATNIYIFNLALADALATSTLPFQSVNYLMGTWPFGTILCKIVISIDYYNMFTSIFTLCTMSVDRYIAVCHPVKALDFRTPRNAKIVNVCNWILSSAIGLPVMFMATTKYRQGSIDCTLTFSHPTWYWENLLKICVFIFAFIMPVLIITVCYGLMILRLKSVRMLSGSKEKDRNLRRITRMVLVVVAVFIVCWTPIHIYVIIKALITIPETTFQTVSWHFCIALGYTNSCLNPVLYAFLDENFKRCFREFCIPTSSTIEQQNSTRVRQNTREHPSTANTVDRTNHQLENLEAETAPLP

Row | Structure (SMILES) | Ki [1] | AUEC [2] | AUEC [3] | AUEC [4] | Ki [5] | Activity [3]
1 | CN1CCC23c4c5ccc(O)c4O[C@H]2[C@@H](OC2OC(C(=O)O)=CC(O)C2O)C=C[C@H]3[C@H]1C5 (some centres undefined) | 48 nM | 651 %·min | 701 A% min-1 | 759 A% min-1 | 1.4 nM | 
2 | CC1OC(O[C@H]2C=C[C@H]3[C@H]4Cc5ccc(O)c6c5C3(CCN4C)[C@H]2O6)C(O)C(O)C1O (some centres undefined) | 6.2 nM | 421 %·min |  | 250 A% min-1 | 0.17 nM | 
3 | CN1CC[C@]23c4c5ccc(O)c4O[C@H]2[C@@H](OC2O[C@@H](C(=O)O)CC(O)C2O)C=C[C@H]3[C@H]1C5 (some centres undefined) | 57 nM | 18 %·min |  | 365 A% min-1 | 1.9 nM | 1046 A% min-1
4 | CN1CC[C@]23c4c5ccc(O)c4O[C@H]2[C@@H](OC2OC(CO)[C@H](O)C(O)C2O)C=C[C@H]3[C@H]1C5 (some centres undefined) | 3.2 nM | 1130 %·min |  | 2283 A% min-1 | 0.28 nM | 
5 | CN1CCC23c4c5ccc(O)c4O[C@H]2[C@@H](OC2OC(CO)[C@H](O)C(O)C2O)C=C[C@H]3[C@H]1C5 (some centres undefined) | 4.8 nM | 682 %·min | 2397 A% min-1 | 686 A% min-1 | 1.2 nM | 
6 | CN1CC[C@]23c4c5ccc(O)c4O[C@H]2[C@@H](O[C@@H]2O[C@H](C(=O)O)C[C@H](O)[C@@H]2O)C=C[C@H]3[C@H]1C5 | 172 nM | 35 %·min | 380 A% min-1 | 80 A% min-1 | 0.6 nM | 
7 | CN1CCC23c4c5ccc(O)c4O[C@H]2[C@@H](O[C@@H]2O[C@@H](CO)[C@@H](O)[C@H](O)[C@@H]2O)CC[C@H]3[C@H]1C5 | 2.5 nM | 1490 %·min |  | 2701 A% min-1 | 0.21 nM | 
8 | CN1CCC23c4c5ccc(O)c4O[C@H]2[C@@H](O[C@@H]2O[C@@H](C(=O)O)[C@@H](O)[C@H](O)[C@@H]2O)CC[C@H]3[C@H]1C5 | 5.7 nM | 1667 %·min |  | 1885 A% min-1 | 0.25 nM | 
9 | O=C(O)[C@@H]1O[C@@H](O[C@H]2C=C[C@H]3[C@H]4Cc5ccc(O)c6c5C3(CCN4CC3CC3)[C@H]2O6)[C@@H](O)[C@@H](O)[C@@H]1O | 3.5 nM | 126 %·min | 266 A% min-1 | 599 A% min-1 | 0.06 nM | 
10 | CN1CCC23c4c5ccc(O)c4O[C@H]2[C@@H](O[C@@H]2O[C@H](C(=O)O)[C@@H](O)[C@H]2O)C=C[C@H]3[C@H]1C5 | 44 nM | -56 %·min | 596 A% min-1 | 797 A% min-1 | 1.6 nM | 
11 | CN1CCC23c4c5ccc(O)c4O[C@H]2[C@@H](OC2C=CC(O)C(C(=O)O)O2)C=C[C@H]3[C@H]1C5 (some centres undefined) | 178 nM | 491 %·min |  | 130 A% min-1 | 3.2 nM | 851 A% min-1
12 | O=C(O)[C@@H]1O[C@@H](O[C@H]2CC[C@H]3[C@H]4Cc5ccc(O)c6c5[C@@]3(CCN4)[C@H]2O6)[C@@H](O)[C@@H](O)[C@@H]1O |  | 2196 %·min |  | 2461 A% min-1 |  | 
13 | COc1ccc2c3c1O[C@H]1[C@@H](O[C@@H]4O[C@@H](C(=O)O)[C@@H](O)[C@H](O)[C@@H]4O)C=C[C@H]4[C@@H](C2)N(C)CC[C@@]341 | 5700 nM |  |  |  | 85 nM | 
14 | O=C(O)[C@@H]1O[C@@H](O[C@H]2C=C[C@H]3[C@H]4Cc5ccc(O)c6c5[C@@]3(CCN4)[C@H]2O6)[C@@H](O)[C@@H](O)[C@@H]1O | 37 nM | 393 %·min | 2487 A% min-1 | 1614 A% min-1 | 0.98 nM | 
15 | C=CCN1CC[C@]23c4c5ccc(O)c4O[C@H]2[C@@H](O[C@@H]2O[C@@H](C(=O)O)[C@@H](O)[C@H](O)[C@@H]2O)C=C[C@H]3[C@H]1C5 | 10 nM | 221 %·min | 492 A% min-1 | 147 A% min-1 | 0.2 nM | 
16 | O=C(O)CN1CC[C@]23c4c5ccc(O)c4O[C@H]2[C@@H](O[C@@H]2O[C@@H](C(=O)O)[C@@H](O)[C@H](O)[C@@H]2O)C=C[C@H]3[C@H]1C5 | 1620 nM | 266 %·min | 322 A% min-1 | 45 A% min-1 | 33 nM | 
17 | CN1CCC23c4c5ccc(O)c4O[C@H]2[C@@H](OC2CCCC(C(=O)O)O2)C=C[C@H]3[C@H]1C5 (some centres undefined) | 168 nM | 230 %·min | 478 A% min-1 | 26 A% min-1 | 0.51 nM | 
18 | CN1CC[C@]23c4c5ccc(O)c4O[C@H]2[C@@H](O[C@@H]2O[C@H](C(=O)O)[C@@H](O)[C@H](O)[C@H]2O)C=C[C@H]3[C@H]1C5 [MORPHINE GLUCURONIDE] | 26 nM |  |  | 1359 A% min-1 | 1.5 nM | 
19 | CN1CC[C@]23c4c5ccc(O)c4O[C@H]2[C@@H](O)C=C[C@H]3[C@H]1C5 [MORPHINE] |  |  |  | 1987 A% min-1 |  | 

From ChEMBL document CHEMBL1136668, “Structure-activity relationships of some opiate glycosides” (Bioorg Med Chem Lett, 2003)
